According to ChEMBL document CHEMBL1151558, “An efficient synthesis and biological activities of 19-nor-17-hydroxy-17-trifluoromethyl-4-estren-3-one and its analogs” (Bioorg Med Chem Lett, 1995):

Columns and labels:
[1] = target: T1, Progesterone receptor (Rattus norvegicus) (UniProt Q63449); test: Binding affinity for cytosolic progesterone receptor (PRc) of rat uterus compared to RU-486
T1 sequence (whole entry): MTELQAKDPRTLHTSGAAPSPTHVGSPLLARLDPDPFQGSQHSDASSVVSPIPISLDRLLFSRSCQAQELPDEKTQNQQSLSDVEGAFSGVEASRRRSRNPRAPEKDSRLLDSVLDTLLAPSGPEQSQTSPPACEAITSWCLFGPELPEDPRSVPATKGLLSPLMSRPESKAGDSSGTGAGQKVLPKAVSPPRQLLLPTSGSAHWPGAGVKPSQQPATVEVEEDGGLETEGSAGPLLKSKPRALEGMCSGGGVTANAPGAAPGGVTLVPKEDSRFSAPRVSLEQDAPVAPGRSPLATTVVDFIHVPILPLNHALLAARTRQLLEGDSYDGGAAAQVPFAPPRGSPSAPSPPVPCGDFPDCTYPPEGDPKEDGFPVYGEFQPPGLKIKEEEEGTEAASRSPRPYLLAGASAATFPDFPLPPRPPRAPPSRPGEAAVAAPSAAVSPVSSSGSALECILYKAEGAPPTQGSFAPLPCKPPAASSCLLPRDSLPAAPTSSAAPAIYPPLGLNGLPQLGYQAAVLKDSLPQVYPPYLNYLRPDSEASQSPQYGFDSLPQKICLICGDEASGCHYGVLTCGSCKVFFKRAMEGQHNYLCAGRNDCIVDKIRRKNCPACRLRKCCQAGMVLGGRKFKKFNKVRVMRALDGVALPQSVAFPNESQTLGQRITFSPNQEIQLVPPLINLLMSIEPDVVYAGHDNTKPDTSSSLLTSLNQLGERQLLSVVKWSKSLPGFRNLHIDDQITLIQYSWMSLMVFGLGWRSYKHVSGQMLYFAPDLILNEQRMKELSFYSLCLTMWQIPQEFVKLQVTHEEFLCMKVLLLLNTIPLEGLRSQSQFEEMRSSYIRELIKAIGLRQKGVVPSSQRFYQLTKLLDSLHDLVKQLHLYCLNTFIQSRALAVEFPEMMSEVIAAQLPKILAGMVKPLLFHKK

Progesterone receptor = target: T2, Progesterone receptor (Rattus norvegicus, UniProt Q63449); test: Inhibition of [3H]R5020 binding to cytosolic progesterone receptor (PRc) of rat uterus
T2 sequence (Q63449 whole entry): T1 sequence (whole entry)

Row | Compound | relative binding affinity (RBA) [1] | IC50 (Progesterone receptor)
1 | CC#C[C@]1(O)CC[C@H]2[C@@H]3CCC4=CC(=O)CCC4=C3[C@@H](c3ccc(N(C)C)cc3)C[C@@]21C | 100 | 
2 | C[C@]12CCC3=C4CCC(=O)C=C4CCC3C1CC[C@@]2(O)C(F)(F)F (some centres not stated) | 77.8 | 4.5 nM
3 | C[C@]12CCC3C(CCC4=CC(=O)CC[C@@H]43)C1CC[C@@]2(O)C(F)(F)F (some centres not stated) | 292 | 1.2 nM
4 | C[C@]12C=CC3=C4CCC(=O)C=C4CCC3C1CC[C@@]2(O)C(F)(F)F (some centres not stated) | 38.9 | 9 nM
